Consider four molecules from patent EP0540185A1, “4'-(N-substituted-N-oxide)staurosporine derivatives” (SCHERING CORPORATION, priority 1991, dated 1993).

In data set [1] the test system is Normal Human Epidermal Keratinocyte (NHEK) Cultures. The experiment in a line: Inhibition of spontaneous and induced cornified envelope (CE) formation in NHEK cultures. It is filed as cell-based. Set-up: CE formation induced by high calcium-containing media: unit of the concentration uncertain. The following applies: for CE formation induced by high calcium-containing media: 1.6 mM Ca+2 media. As for the experimental part: C. Inhidition of Spontaneous and Induced Cornified Envelope ("CE") Formation in Normal Human Epidermal Keratinocyte (NHEK) Cultures.
The data was collected in cultured NHEK cells which were grown in serum-free media to subconflurncy and then treated with DMSO (vehicle control) or various concentration of the compounds of this invention, etretinate (an antipsoriatic aromatic analog of retinoic acid) and staurosporine.
After 15 minutes, the NHEK cells were treated with DMSO (vehicle control), […] of 12-tetradecanoyl-phorbol-13-acetate ("TPA") to evaluate TPA-induced CE formation. In another experiment, the NHEK cells were refed media containing 0.15 mM Ca⁺² (control) or a high calcium-containing media, i.e., a 1.6 mM Ca⁺² media to induce CE formation by such a high calcium-containing media. After 48 hours, the cells so-treated were harvested and viable and total cells were counted. Cornified envelopes were assessed after resuspending cells pellets in buffer containing sodium dodecyl sulfate ("SDS") and dithiothreitol ("DTT"). CE formation induced by TPA or high calcium-containing media was expressed as CE/viable cells and each treatment group was compared to its appropriate control group.

Data set [2] deals with Myosin light chain kinase (MLCK) (Homo sapiens, UniProt Q15746). The experiment in a line: Myosin light chain kinase (MLCK) assay. Particulars: MLCK substrate peptide, 10 nM calmodulin, 10 minutes. It is filed as biochemical. As for the experimental part: (§1) The below listed Test Methods A and B were run in accordance with the procedures described in Bishop, W.R., Petrin, J., Wang, L., Ramesh, U., and Doll, R.J. (1990) Biochemical Pharmacology, Vol. 40,2129-2135 and Hannun et al. J. Biol. Chem. (1985), Vol. 260, 10039-10043, which are herein incorporated by reference with the following modifications.
Sequence of Myosin light chain kinase (MLCK) (Q15746 whole entry): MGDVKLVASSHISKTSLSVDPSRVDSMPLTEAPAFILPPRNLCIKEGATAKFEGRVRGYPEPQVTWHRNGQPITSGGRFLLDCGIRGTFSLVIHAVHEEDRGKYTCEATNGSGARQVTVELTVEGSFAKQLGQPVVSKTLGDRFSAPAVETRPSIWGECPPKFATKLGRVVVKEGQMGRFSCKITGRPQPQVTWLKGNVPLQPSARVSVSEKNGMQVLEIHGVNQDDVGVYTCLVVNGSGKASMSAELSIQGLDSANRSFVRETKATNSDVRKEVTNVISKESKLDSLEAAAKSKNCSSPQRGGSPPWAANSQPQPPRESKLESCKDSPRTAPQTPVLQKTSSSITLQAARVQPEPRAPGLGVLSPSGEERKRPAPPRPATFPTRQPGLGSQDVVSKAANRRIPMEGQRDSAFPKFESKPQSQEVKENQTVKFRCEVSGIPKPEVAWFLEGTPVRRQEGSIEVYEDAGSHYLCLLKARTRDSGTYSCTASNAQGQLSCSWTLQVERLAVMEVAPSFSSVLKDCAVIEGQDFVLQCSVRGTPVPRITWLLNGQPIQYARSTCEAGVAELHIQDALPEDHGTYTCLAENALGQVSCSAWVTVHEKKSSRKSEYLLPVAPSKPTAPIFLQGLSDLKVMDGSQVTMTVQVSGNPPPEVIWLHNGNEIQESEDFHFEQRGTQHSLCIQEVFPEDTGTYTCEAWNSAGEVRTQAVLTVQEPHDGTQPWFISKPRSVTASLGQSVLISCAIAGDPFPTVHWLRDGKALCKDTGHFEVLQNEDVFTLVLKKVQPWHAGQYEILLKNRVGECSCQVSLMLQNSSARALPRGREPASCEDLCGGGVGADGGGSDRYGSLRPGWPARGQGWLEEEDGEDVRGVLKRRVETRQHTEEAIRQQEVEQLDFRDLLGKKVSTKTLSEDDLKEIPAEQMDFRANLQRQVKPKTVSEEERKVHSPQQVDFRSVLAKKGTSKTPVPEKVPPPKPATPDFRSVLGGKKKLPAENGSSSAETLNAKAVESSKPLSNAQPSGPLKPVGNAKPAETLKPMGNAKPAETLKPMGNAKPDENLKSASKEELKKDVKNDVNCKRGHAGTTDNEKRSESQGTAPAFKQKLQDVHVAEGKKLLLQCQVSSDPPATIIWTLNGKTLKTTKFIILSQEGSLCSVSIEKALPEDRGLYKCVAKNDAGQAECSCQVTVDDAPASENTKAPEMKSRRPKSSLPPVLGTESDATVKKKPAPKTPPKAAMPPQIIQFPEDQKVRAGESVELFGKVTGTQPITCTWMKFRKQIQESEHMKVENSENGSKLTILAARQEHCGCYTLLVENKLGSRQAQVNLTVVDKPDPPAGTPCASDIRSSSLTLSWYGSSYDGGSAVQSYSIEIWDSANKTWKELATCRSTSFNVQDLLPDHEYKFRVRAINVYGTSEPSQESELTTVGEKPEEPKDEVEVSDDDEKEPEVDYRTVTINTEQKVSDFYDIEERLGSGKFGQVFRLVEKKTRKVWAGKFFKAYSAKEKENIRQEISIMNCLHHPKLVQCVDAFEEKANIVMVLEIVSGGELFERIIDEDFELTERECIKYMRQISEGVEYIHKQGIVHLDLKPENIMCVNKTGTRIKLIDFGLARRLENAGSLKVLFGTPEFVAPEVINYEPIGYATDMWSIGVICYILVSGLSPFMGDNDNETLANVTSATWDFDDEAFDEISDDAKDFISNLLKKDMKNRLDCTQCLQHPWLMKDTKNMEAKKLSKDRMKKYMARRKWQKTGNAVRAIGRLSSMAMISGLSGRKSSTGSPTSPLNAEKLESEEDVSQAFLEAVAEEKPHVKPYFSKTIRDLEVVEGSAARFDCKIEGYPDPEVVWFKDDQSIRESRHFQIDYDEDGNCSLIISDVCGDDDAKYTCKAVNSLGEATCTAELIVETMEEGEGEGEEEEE
B. Myosin Light Chain Kinase ("MLCK") Protocol
Myosin light chain kinase (MLCK) assays were conducted in accordance with the methods of the Bishop et al. and Hannun et al. articles listed above in a reaction mixture containing 30 mM MLCK substrate peptide (Lys-Lys-Arg-Pro-Gln-Arg-Ala-Thr-Ser-Asn-Val-Phe-Ser-NH₂), 10 nM calmodulin, 25 mM [g-32P]ATP; 0.1 mM Ca⁺² acetate and 10 mM Mg⁺² acetate. Reactions were stopped after 10 minutes by addition of […] of 375 mM H₃PO₄ and spotting on phosphocellulose P81 paper.

The target of data set [3] is partially purified rat brain PKC. The experiment in a line: Mixed micellular protein kinase C (PKC) assay. Type of data set: biochemical. Particulars: for IC50: histone III-S substrate, 23°C, 15 min, 2% DMSO; for MLCK/PKC: selectivity, ratio of IC50 MLCK to IC50 PKC. The method, then:
as §1
A. Protein Kinase C ("PKC") Protocol
Mixed micellular protein kinase C assays were conducted in accordance with the methods described in the two articles cited just above (namely, Bishop et al, and Hannun et al), in a reaction mixture (0.25 mL total volume) containing: 20 mM Tris-HCl (pH 7.5); […] histone III-S; 10 mM MgCl₂; 5 mM [g-32P]ATP (4 x 10^6 cpm/mmol); 200 mM CaCl₂; 32 mg/mL of phosphatidylserine; 1.6 mg/mL of 1-oleoyl-2-acetylglycerol and various concentrations of compounds of this invention added from a dimethyl-sulfoxide (DMSO) stock solution. The final concentration of DMSO in the reaction was 2% w/v. Reactions were started by addition of approximately […] of partially purified rat brain PKC and allowed to proceed at 23°C for 15 min. Reactions were terminated by collection of trichloroacetic acid-precipitated phosphorylated histone on GF/C filters using a Brandel Cell Harvester (Model No. M-24-R).

[4] abbreviates: concentration of <10 mM, NHEK cells.

One may read the IC50 as the concentration that inhibits the measured activity by half.

For `CN[C@@H]1C[C@H]2O[C@@](C)([C@@H]1OC)n1c3ccccc3c3c4c(c5c6ccccc6n2c5c31)C(=O)NC4` [Staurosporine, staurosporine], in data set [1] (setting [4]), the CE formation entry was “potently inhibited” and the cytotoxicity entry was “cytotoxicity was observed”.

Regarding `COC1C([N+](C)([O-])Cc2ccccc2)CC2OC1(C)n1c3ccccc3c3c4c(c5c6ccccc6n2c5c31)C(=O)NC4` (stereo not drawn) [Example 11, 4′-N-benzyl-N-oxide of staurosporine], the IC50 in data set [2] was 55 nM; in data set [3], 33 nM. Further, the “CE formation induced by high calcium-containing media” value worked out at 71% in data set [1] (500 (unit uncertain) concentration, NHEK cells, 48 hours) and 74% in data set [1] (1000 (unit uncertain) concentration, NHEK cells, 48 hours). In addition, in data set [1] (concentration of 250 mM, TPA-treated NHEK cells, 48 hours), the “TPA-induced CE formation” value was “antagonizes”. Besides, the MLCK/PKC in data set [3] was found to be 16.7.

The molecule `COC1C([N+](C)(C)[O-])CC2OC1(C)n1c3ccccc3c3c4c(c5c6ccccc6n2c5c31)C(=O)NC4` (stereo not drawn) [Example 1, 4′ N-methyl-N-oxide of staurosporine] came in with an IC50 in data set [2] of 34 nM. Moreover, in data set [3], the 50% inhibitory concentration (IC50) was 3.1 nM and the MLCK/PKC was found to be 11.

For `CCOC(=O)/C=C(C)/C=C/C=C(C)/C=C/c1c(C)cc(OC)c(C)c1C` [etretinate, reference compound], the “cornified envelope formation / keratinocyte cornification” value in data set [1] (human keratinocytes, no concentration given) is “inhibition of keratinocyte cornification”.
